Measurements: patent publication US20080095741A1, “R-(+)-alpha-liponic acid for the prevention of diabetes” (MEDA Pharma GmbH & Co. KG, priority 2004, published 2008)
Like-named read-outs stand apart in the source and are kept apart here.

What was measured:
β cells = conditions: Kaneto et al., 1999; cited from earlier work
Biobreed rats [1] = test: Biobreed rat, survival time and water consumption as further surrogates; type: in vivo; conditions: dose-dependent
Method: The survival time and the water consumption were determined as further surrogates for the occurrence and deterioration of diabetes.

biobreed rat = test: Preventive therapy in the biobreed rat model of diabetes (occurrence and progression); type: in vivo
From the text: The experiments for the primary and secondary prevention of diabetes with α-lipoic acid or its derivatives were investigated using a suitable model system. The biobreed rat is a model of diabetes in which a primary loss of p cells also occurs on account of autoimmune processes. […] A secondary stress of the p cells occurs with the simultaneous development of hyperglycemia on account of the increasing glucose toxicity. Thus, pathogenic processes are reflected in this model that stand in the foreground of the progression of the disease and contribute to the progression in all forms of diabetes.
A preventive therapy with racemic α-lipoic acid as well as the two enantiomers took place in the biobreed rat.
This allows the conclusion that for the primary and secondary prevention of diabetes only the R-configured, dextrorotary enantiomer is suitable, as well as derivatives derived from it with intact dithiolane structure. This can be used just as suitably for the prevention of the secondary loss of function of β cells after transplantation.

Biobreed rats [2] = test: Biobreed rat, development and progression of diabetes determined by weight loss as surrogate; type: in vivo; conditions: chronic ip, tromethamine salt
Method: Biobreed rats (male and female, 130-180 g) 5-19 weeks old were chronically treated (ip) with different doses of R-(+)-α-lipoic acid as tromethamine salt. The development and progression of diabetes was determined by weight loss as surrogate. […] Biobreed rats (male and female, 130-180 g) 5-19 weeks old were each chronically treated (ip) with 36.6 mg of different lipoic acid derivatives (as tromethamine salt). The development and progression of diabetes was determined by daily weight measuring as surrogate.

Biobreed rats [3] = test: Biobreed rat, development and progression of diabetes determined by daily measuring of the blood sugar as surrogate; type: in vivo; conditions: chronic ip, tromethamine salt, blood from the caudal vein
Method: Biobreed rats (male and female, 130-180 g) 5-19 weeks old were chronically treated (ip) with different doses of R-(+)-α-lipoic acid as tromethamine salt. The development and progression of diabetes was determined by daily measuring of the blood sugar (taken from the caudal vein) as surrogate. […] Biobreed rats (male and female, 130-180 g) 5-19 weeks old were each chronically treated with 36.6 mg of different lipoic acid derivatives (as tromethamine salt (ip)). with as tromethamine salt. The development and progression of diabetes was determined by daily measuring of the blood sugar (taken from the caudal vein) as surrogate.

NOD mouse = conditions: Faust et al., 1994, cited from earlier work
[4] = system: isolated pancreatic cells; conditions: pre-incubation; radical-generating system or activated macrophages; Burkart et al., 1993; cited from earlier work

For `CC(=O)N[C@@H](CS)C(=O)O` [N-acetylcystein], the “effect on the glucose toxicity of β cells” value (β cells) is given as “a certain protective action”.

For `O=C(O)CCCCC1CCSS1` (stereo not drawn) [R-(+)-α-lipoic acid, 1,2-dithiolane-3-pentanoic acid], the “increase of the consumption of water” value (Biobreed rats [1]) was “positive effect”, the survival time (Biobreed rats [1]) was “positive effect” and the occurrence of diabetes (biobreed rat; listed as R-(+)-enantiomer) was “can be delayed”. The “progression of manifest diabetes” value (biobreed rat; listed as R-(+)-enantiomer) was “distinctly attenuated in a dose-dependent manner”, the “progression of diabetes (weight loss as surrogate)” value (Biobreed rats [2]; Example 1, different doses) was “delayed progression of diabetes in a dose-dependent manner” and the “progression of diabetes (daily weight measuring as surrogate)” value (Biobreed rats [2]; Example 2, 36.6 mg) was “had an effect on the progression of diabetes”. For the same compound, the “progression of a rise in blood sugar” value (Biobreed rats [3]; Example 3, different doses) was “delayed progression of a rise in blood sugar in a dose-dependent manner” and the “progression of diabetes (daily blood sugar as surrogate)” value (Biobreed rats [3]; Example 4, 36.6 mg) was “had an effect on the progression of diabetes”.

In the case of vitamin E, the “effect on the glucose toxicity of β cells” value (β cells) is listed as “no effect”.

For `O=C(O)CCCCC1CCSS1` (racemic) [racemic mixture], the occurrence of diabetes (biobreed rat) is listed as “remained without effect”, the “progression of manifest diabetes” value (biobreed rat) is listed as “remained without effect” and the “infiltration with immunocompetent cells into pancreatic tissue (surrogate of β cell destruction)” value (NOD mouse; chronic administration, without cytotoxin) is listed as “had no influence”. For the same compound, the protective action (NOD mouse; with additional intoxication with cyclophosphamide) was “protective action”.

In the case of `O=C(O)CCCC[C@H]1CCSS1` (single isomer, unassigned) [S-(−)- enantiomer], the occurrence of diabetes (biobreed rat) is reported as “remained without effect” and the “progression of manifest diabetes” value (biobreed rat) is reported as “remained without effect”.

For `O=C(O)CCCC[C@@H](S)CCS` (racemic) [racemic dihydrolipoic acid], the “protection of pancreatic cells from lysis” value [4] is given as “partially protected from lysis”.
